# Data published in patent US9133182B2, “Selective androgen receptor modulators” (Radius Health, Inc., priority 2010, dated 2015).
# Target: androgen receptor (Rattus norvegicus (Rat), UniProt P15207)
# Assay: androgen receptor binding assay (fluorescence polarization, Invitrogen)
# Settings: AR-Fluormone complex, 4 h at room temperature; Table 1
# Experimental: The assay was performed as specified by the manufacturer (Invitrogen, Madison, Wis.). Briefly, 1 μl of 10 mM compound was added to 500 μl of AR screening buffer in a 1.5 ml eppendorf tube to make a 2×10^−5M stock. 10-fold serial dilutions of the test compounds were prepared ranging in concentration from 10^−5M to 10^−12M. Each dilution was added in triplicate to a black 384-microtiter plate. The test compounds will be diluted 2-fold in the final reaction. 2×AR-Fluormone™ complex was prepared with 2 nM Flourmone AL Green™ and 30 nM AR. 25 μl of 2×complex was aliquoted to each reaction well, such that the final reaction volume was 50 μl per well. Plate was sealed with a foil cover and incubated in the dark at room temperature for 4 h. Polarization values for each well were measured. The polarization values were plotted against the concentration of the test compound. […] As a control, a competition curve for R1881 (methyltrienolone) was performed for each assay.
# androgen receptor, sequence (P15207 651-902): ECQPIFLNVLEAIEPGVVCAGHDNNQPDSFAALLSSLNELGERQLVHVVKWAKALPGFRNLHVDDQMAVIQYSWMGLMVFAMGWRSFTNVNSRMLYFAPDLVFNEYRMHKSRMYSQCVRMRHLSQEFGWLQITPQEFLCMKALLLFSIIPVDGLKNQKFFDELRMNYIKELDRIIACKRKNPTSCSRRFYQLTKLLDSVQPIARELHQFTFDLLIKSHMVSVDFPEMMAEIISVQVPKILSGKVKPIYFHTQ
Structure (SMILES),IC50,Binding IC50 (nM)
"Cc1c(N2C(=O)CC[C@@H]2[C@@H](O)C(F)(F)F)ccc(C#N)c1C(F)(F)F [Example 4, 3-methyl-4-((R)-2-oxo-5-((R)-2,2,2-trifluoro-1-hydroxyethyl)pyrrolidin-1-yl)-2-(trifluoromethyl)benzonitrile]",120 nM,–
"N#Cc1ccc(N2C(=O)CC[C@@H]2[C@H](O)C(F)(F)F)cc1C(F)(F)F [Example 1, 4-((R)-2-oxo-5-((S)-2,2,2-trifluoro-1-hydroxyethyl)pyrrolidin-1-yl)-2-(trifluoromethyl)benzonitrile]",14 nM,–
"Cc1c(N2C(=O)O[C@@H](C)[C@@H]2[C@@H](O)C(F)(F)F)ccc(C#N)c1Cl [Example 18, 2-chloro-3-methyl-4-((4S,5S)-5-methyl-2-oxo-4-((R)-2,2,2-trifluoro-1-hydroxyethyl)oxazolidin-3-yl)benzonitrile]",700 nM,–
"O=C1CC[C@H]([C@H](O)C(F)(F)F)N1c1ccc2nnsc2c1 [Example 5, (R)-1-(Benzo[d][1,2,3]thiadiazol-6-yl)-5-((S)-2,2,2-trifluoro-1-hydroxyethyl)pyrrolidin-2-one]",530 nM,–
"Cc1c(N2C(=O)CC[C@@H]2[C@H](O)C(F)(F)F)ccc(C#N)c1C(F)(F)F [Example 3, 3-methyl-4-((R)-2-oxo-5-((S)-2,2,2-trifluoro-1-hydroxyethyl)pyrrolidin-1-yl)-2-(trifluoromethyl)benzonitrile]",11 nM,–
"Cc1c(N2C(=O)O[C@@H](C)[C@@H]2[C@H](O)C(F)(F)F)ccc(C#N)c1C(F)(F)F [Example 23, 3-methyl-4-((4S,5S)-5-methyl-2-oxo-4-((S)-2,2,2-trifluoro-1-hydroxyethyl)oxazolidin-3-yl)-2-(trifluoromethyl)benzonitrile]",33 nM,–
"N#Cc1ccc(N2C(=O)OC[C@@H]2[C@@H](O)C(F)(F)F)cc1C(F)(F)F [Example 8, 4-((R)-2-oxo-4-((R)-2,2,2-trifluoro-1-hydroxyethyl)oxazolidin-3-yl)-2-(trifluoromethyl)benzonitrile]",> 1000 nM,–
"CN1C[C@H]([C@@H](O)C(F)(F)F)N(c2ccc(C#N)c(C(F)(F)F)c2)C1=O [Example 26, 4-((R)-5-((R)-2,2,2-trifluoro-1-hydroxyethyl)-3-methyl-2-oxoimidazolidin-1-yl)-2-(trifluoromethyl)benzonitrile]",> 1000 nM,–
"N#Cc1ccc(N2C(=O)CC[C@@H]2[C@@H](O)C(F)(F)F)cc1C(F)(F)F [Example 2, 4-((R)-2-oxo-5-((R)-2,2,2-trifluoro-1-hydroxyethyl)pyrrolidin-1-yl)-2-(trifluoromethyl)benzonitrile]",100 nM,–
"Cc1c(N2C(=O)OC[C@@H]2[C@@H](O)C(F)(F)F)ccc(C#N)c1Cl [Example 12, 2-chloro-3-methyl-4-((R)-2-oxo-4-((R)-2,2,2-trifluoro-1-hydroxyethyl)oxazolidin-3-yl)benzonitrile]",933 nM,–
"N#Cc1ccc(N2C(=O)OC[C@H]2[C@@H](O)C(F)(F)F)cc1Cl [Example 10, 2-chloro-4-((S)-2-oxo-4-((R)-2,2,2-trifluoro-1-hydroxyethyl)oxazolidin-3-yl)benzonitrile]",> 1000 nM,–
"Cc1c(N2C(=O)O[C@H](C)[C@@H]2[C@@H](O)C(F)(F)F)ccc(C#N)c1Cl [Example 16, 2-chloro-3-methyl-4-((4S,5R)-5-methyl-2-oxo-4-((R)-2,2,2-trifluoro-1-hydroxyethyl)oxazolidin-3-yl)benzonitrile]",> 1000 nM,–
"Cc1c(N2C(=O)OC[C@@H]2[C@H](O)C(F)(F)F)ccc(C#N)c1C(F)(F)F [Example 13, 3-methyl-4-((R)-2-oxo-4-((S)-2,2,2-trifluoro-1-hydroxyethyl)oxazolidin-3-yl)-2-(trifluoromethyl)benzonitrile]",13 nM,–
"Cc1c(N2C(=O)O[C@@H](C)[C@@H]2[C@@H](O)C(F)(F)F)ccc(C#N)c1C(F)(F)F [Example 24, 3-methyl-4-((4S,5S)-5-methyl-2-oxo-4-((R)-2,2,2-trifluoro-1-hydroxyethyl)oxazolidin-3-yl)-2-(trifluoromethyl)benzonitrile]",> 1000 nM,–
"O=C1CC[C@H]([C@@H](O)C(F)(F)F)N1c1ccc2nnsc2c1 [Example 6, (R)-1-(Benzo[d][1,2,3]thiadiazol-6-yl)-5-((R)-2,2,2-trifluoro-1-hydroxyethyl)pyrrolidin-2-one]",–,No binding
"Cc1c(N2C(=O)O[C@H](C)[C@@H]2[C@H](O)C(F)(F)F)ccc(C#N)c1Cl [Example 15, 2-chloro-3-methyl-4-((4S,5R)-5-methyl-2-oxo-4-((S)-2,2,2-trifluoro-1-hydroxyethyl)oxazolidin-3-yl)benzonitrile]",200 nM,–

# Same assay, conditions: AR-Fluormone complex, 4 h at room temperature; Table 2
row,Structure (SMILES),IC50
1,"C[C@H]1OC(=O)N(c2ccc(C#N)c(Cl)c2)[C@H]1[C@H](O)C(F)(F)F [Example 38, 2-chloro-4-((4S,5R)-4-((S)-2,2,2-trifluoro-1-hydroxyethyl)-5-methyl-2-oxooxazolidin-3-yl)benzonitrile]",150 nM
2,"C[C@H]1OC(=O)N(c2ccc(C#N)c(C(F)(F)F)c2)[C@H]1[C@@H](O)C(F)(F)F [Example 37, 4-((4S,5R)-4-((R)-2,2,2-trifluoro-1-hydroxyethyl)-5-methyl-2-oxooxazolidin-3-yl)-2-(trifluoromethyl)benzonitrile]",> 1000 nM
3,"N#Cc1ccc(N2C(=O)CC[C@@H]2C(O)C(F)(F)F)cc1Cl (stereo partly drawn) [Example 31, 2-chloro-4-((R)-2-(2,2,2-trifluoro-1-hydroxyethyl)-5-oxopyrrolidin-1-yl)benzonitrile]",46 nM
4,"Cc1c(N2C(=O)O[C@H](C)[C@@H]2[C@@H](O)C(F)(F)F)ccc(C#N)c1C(F)(F)F [Example 35, 4-((4S,5R)-4-((R)-2,2,2-trifluoro-1-hydroxyethyl)-5-methyl-2-oxooxazolidin-3-yl)-2-(trifluoromethyl)-3-methylbenzonitrile]",> 10000 nM
5,"Cc1c(N2C(=O)O[C@H](C)[C@@H]2[C@H](O)C(F)(F)F)ccc(C#N)c1C(F)(F)F [Example 34, 4-((4S,5R)-4-((S)-2,2,2-trifluoro-1-hydroxyethyl)-5-methyl-2-oxooxazolidin-3-yl)-2-(trifluoromethyl)-3-methylbenzonitrile]",> 1000 nM
6,"N#Cc1ccc(N2C(=O)CC[C@@H]2[C@@H](O)C(F)(F)F)cc1Cl [Example 33, 2-chloro-4-((R)-2-((R)-2,2,2-trifluoro-1-hydroxyethyl)-5-oxopyrrolidin-1-yl)benzonitrile]",65 nM
7,"O=C1CC[C@H]([C@@H](O)C(F)(F)F)N1c1ccc(Cl)c(Cl)c1 [Example 28, (R)-1-(3,4-dichlorophenyl)-5-((R)-2,2,2-trifluoro-1-hydroxyethyl)pyrrolidin-2-one]",> 1000 nM
8,"C[C@H]1OC(=O)N(c2ccc(C#N)c(Cl)c2)[C@H]1[C@@H](O)C(F)(F)F [Example 39, 2-chloro-4-((4S,5R)-4-((R)-2,2,2-trifluoro-1-hydroxyethyl)-5-methyl-2-oxooxazolidin-3-yl)benzonitrile]",550 nM
9,"C[C@H]1OC(=O)N(c2ccc(C#N)c(C(F)(F)F)c2)[C@H]1[C@H](O)C(F)(F)F [Example 36, 4-((4S,5R)-4-((S)-2,2,2-trifluoro-1-hydroxyethyl)-5-methyl-2-oxooxazolidin-3-yl)-2-(trifluoromethyl)benzonitrile]",> 1000 nM

# Test system: immature, castrated rat (levator ani and bulba cavernous, LABC)
# Assay: In vivo rat Herschberger assay, LABC weight
# Parameters: key: no = no activity observed at highest dose tested.; yes = increased LABC weight relative to castrated vehicle control
# Settings: once daily oral gavage for 4 days, Table 2
# Source text: In Vivo Rat Model of Androgen and Anabolic Activity-Rat Herschberger Assay
# The following is a typical procedure of the in vivo evaluation of the selective androgens of this invention. In particular, this assay looks primarily at the ability of the selective androgens of this invention to increase muscle size in an immature, castrated rat. In addition, androgenic effects are looked at primarily by weighing the prostate and seminal vesicles. Selective compounds will show a greater increase in the levator ani relative to the prostate and seminal vesicles when compared to testosterone treated, castrated animals or to intact animals that have not been treated. Immature Sprague Dawley male rats were obtained Charles River Laboratories (Stoneridge, N.Y.). All animals were maintained in a temperature and humidity controlled room with a 12 hr light: 12 hr dark cycle, with ad lib access to food (TD 291615, Teklad, Madison, Wis.) and water. Rats were anesthetized and orchidectomized (GDX) or sham surgery (SHAM) was performed. After a 7-day recovery period, the animals were randomized according to weight and assigned to treatment groups (n=5), SHAM, OVX+vehicle, OVX+Cpd treated. Testosterone propionate (TP 1 mg/kg in 5% DMSO/95% corn oil) was administered by once daily subcutaneous injections, while the compounds of the invention are dosed in vehicle (0.5% carboxymethylcellulose) was administered by once daily oral gavage. The rats were then dosed once daily for 4 days. All animals were euthanized via carbon dioxide inhalation 24 hs after the last dose. The prostate, seminal vesicle and levator ani and bulba cavernous (LABC) tissues were removed, weighed and recorded. An increase in mean LABC indicates anabolic activity for that particular compound with regard to oral dosing typically at a maximum tested dose of between 1 mg/kg and 30 mg/kg—see Table 1.
row,Structure (SMILES),Oral activity in Herscheberger assay on LABC weight
1,"N#Cc1ccc(N2C(=O)CC[C@@H]2C(O)C(F)(F)F)cc1Cl (stereo partly drawn) [Example 31, 2-chloro-4-((R)-2-(2,2,2-trifluoro-1-hydroxyethyl)-5-oxopyrrolidin-1-yl)benzonitrile]",yes

# Same assay, conditions: once daily oral gavage for 4 days, maximum tested dose between 1 mg/kg and 30 mg/kg, Table 1
row,Structure (SMILES),Oral activity in Herscheberger assay on LABC weight
1,"N#Cc1ccc(N2C(=O)CC[C@@H]2[C@H](O)C(F)(F)F)cc1C(F)(F)F [Example 1, 4-((R)-2-oxo-5-((S)-2,2,2-trifluoro-1-hydroxyethyl)pyrrolidin-1-yl)-2-(trifluoromethyl)benzonitrile]",yes
2,"C[C@@H]1OC(=O)N(c2ccc(C#N)c(C(F)(F)F)c2)[C@H]1[C@H](O)C(F)(F)F [Example 19, 4-((4S,5S)-5-methyl-2-oxo-4-((S)-2,2,2-trifluoro-1-hydroxyethyl)oxazolidin-3-yl)-2-(trifluoromethyl)benzonitrile]",yes
3,"Cc1c(N2C(=O)CC[C@@H]2[C@H](O)C(F)(F)F)ccc(C#N)c1C(F)(F)F [Example 3, 3-methyl-4-((R)-2-oxo-5-((S)-2,2,2-trifluoro-1-hydroxyethyl)pyrrolidin-1-yl)-2-(trifluoromethyl)benzonitrile]",yes
4,"C[C@@H]1OC(=O)N(c2ccc(C#N)c(C(F)(F)F)c2)[C@H]1[C@@H](O)C(F)(F)F [Example 20, 4-((4S,5S)-5-methyl-2-oxo-4-((R)-2,2,2-trifluoro-1-hydroxyethyl)oxazolidin-3-yl)-2-(trifluoromethyl)benzonitrile]",yes
5,"CN1C[C@H]([C@@H](O)C(F)(F)F)N(c2ccc(C#N)c(C(F)(F)F)c2)C1=O [Example 26, 4-((R)-5-((R)-2,2,2-trifluoro-1-hydroxyethyl)-3-methyl-2-oxoimidazolidin-1-yl)-2-(trifluoromethyl)benzonitrile]",no
6,"Cc1c(N2C(=O)OC[C@@H]2[C@H](O)C(F)(F)F)ccc(C#N)c1C(F)(F)F [Example 13, 3-methyl-4-((R)-2-oxo-4-((S)-2,2,2-trifluoro-1-hydroxyethyl)oxazolidin-3-yl)-2-(trifluoromethyl)benzonitrile]",yes
